# Read-outs that look alike come from different tables or passages of the source. Marks after values point to notes of the source that are not given here.
# How the values were obtained:
# [1] = system: Madin-Darby bovine kidney cell (MDBK cell); assay: Cytotoxicity: inhibition of growth of uninfected MDBK cells (TetraColor One MTT); assay type: cell-based
# Procedure: (§1) Also, after addition of the compound according to the present invention to medium containing cells not infected with any virus, the percent inhibition of cell growth of the compound according to the present invention is measured. For example, with the use of a reagent for viable cell measurement, such as a water soluble MTT solution TetraColor One™ (Seikagaku Corporation), the percent inhibition of cell growth can be measured.
# (§2) At the same time, for measurement of toxicity of each compound, the compound was added to a microtiter plate containing MDBK cells not infected with the virus as described above, followed by 3 days of culture. After 3 days of culture, TetraColor One™ was added to a microtiter plate at 10 μl per well. After 1 hour of incubation at 37° C., the microtiter plate was applied to a microplate reader and then absorbance was measured at 450 nm/690 nm.
# (§3) The percent inhibition (%) of cell growth was calculated by the following formula based on the thus obtained absorbance: […]
# [2] = system: Bovine viral diarrhea virus (BVDV) Nose strain; assay: Anti-BVDV activity: inhibition of viral replication in BVDV-infected MDBK cells (LDH in culture supernatant); assay type: cell-based; conditions: for EC50: Bovine viral diarrhea virus isolates and strains, 72 h, read-out: EC50 (50% effective concentration, 50% inhibition of viral replication); for Selectivity index (CC50/EC50): CC50 in uninfected MDBK cells / EC50 against BVDV; for anti-BVDV effects (in words): summary statements on the tables
# Source text: The antiviral activity of the compound according to the present invention can be evaluated by a method that involves infecting cells with a virus, adding the compound according to the present invention to medium before, after, or simultaneously with infection, and then measuring the percent inhibition of viral replication. Specifically, such percent inhibition of viral replication can be evaluated by measuring the activity of lactate dehydrogenase (LDH) in the culture supernatant of the virus-infected cells using an LDH cytotoxicity detection kit (Takara Biochemicals), for example. LDH is an enzyme that exists in the cytoplasm and is generally almost never released extracellularly because of the presence of cell membrane. Meanwhile, when cells are infected with a virus and then the virus replicated within the cells, infected cells die. As a result of viral infection, cell membrane is disrupted and then LDH is released into the culture supernatant. […] That is, the degree of cell disruption due to viral replication and the LDH level in the culture supernatant show extremely good positive correlation. Therefore, the antiviral activity (inhibition of viral replication) of the compound according to the present invention can be measured via quantitative determination of LDH in the culture supernatant.
# Furthermore, the selectivity index (CC50/EC50) is calculated. The higher the selectivity index, the higher the effects of inhibiting viral replication alone without damaging cells. Therefore, the antiviral activity of the compound according to the present invention can be evaluated using the selectivity index as an index. Also, the antiviral activity of the compound according to the present invention can be evaluated by assay (e.g., Western blot analysis, ELISA, or flow cytometry) for measuring the viral antigen level in virus-infected cells cultured in medium containing the compound according to the present invention or assay (e.g., Northern blot analysis or quantitative RT-PCR) for measuring the virus gene (RNA) level in virus-infected cells.
# 1) Cell: Madin-Darby bovine kidney cell (hereinafter, referred to as “MDBK cell”);
# 2) Virus: Bovine viral diarrhea virus (hereinafter, referred to as “BVDV”) Nose strain;
# MDBK cells (2×10^5 cells/ml) were infected with BVDV at an MOI of 0.01 (multiplicity of infection, MOI=0.01). Next, a solution containing BVDV-infected cells was dispensed into a 96-well flat bottom microtiter plate at 100 μl per well, simultaneously with the addition of a compound subjected to 5-fold serial dilution, followed by 3 days of culture at 37° C. (5% CO2).
# After 3 days of culture, 50 μl of the cultured supernatant was collected and then transferred to another microtiter plate and then 50 μl of the reaction solution of an LDH cytotoxicity detection kit was added. After 30 minutes of culture at room temperature, the microtiter plate was applied to a microplate reader (BioRad Laboratories) and then absorbance was measured at 490 nm/690 nm.
# The percent inhibition (%) of viral replication was calculated by the following formula based on the thus obtained absorbance:
# 100−[(ODT)V−(ODC)M]/[(ODC)V−(ODC)M]×100(%)
# [3] = Cytotoxicity: inhibition of growth of uninfected MDBK cells (TetraColor One MTT); assay type: cell-based, bovine; conditions: bovine
# Procedure: as §1, §2, §3
# [4] = BVDV-infected MDBK cells, MOI 0.01, 3 days of culture, LDH readout, mean of at least two experiments
# [5] = read-out: CC50 (50% cytotoxicity concentration, 50% inhibition of cell growth), uninfected MDBK cells, 3 days of culture, MTT readout, mean of at least two experiments
Molecule,"CC50 ([1]; bovine, 3 days) [µM]","EC50 [2, 4] [µM]",Selectivity index (CC50/EC50) [2],anti-BVDV effects (in words) [2],CC50 at 3 days [3] [µM],other results
"c1ccc2c(c1)Cc1ccccc1-2 [Fluorene, reference compound]",> 100,> 100,–,–,–,–
"c1ccc2c(c1)oc1ccccc12 [Dibenzofuran, reference compound]",–,–,–,–,–,"CC50 [1, 5]: > 100 µM; EC50 ([2]; MDBK): > 100 µM"
Cn1ccc2nc3ccccc3c-2c1 [Compound 2],65,4.3,15.1,–,–,–
Cn1c2ccccc2c2cnccc21 [Compound 5],29,0.26,111.5,strongest activity and the highest selectivity,–,–
c1ccc2c(c1)[nH]c1cnccc12 [β-Carboline],–,–,10.2,selective anti-BVDV effects,–,"CC50 at 3 days ([3]; uninfected MDBK cells, 3 days of culture, MTT readout, mean of at least two experiments): 87 µM; EC50 ([2]; MDBK): 8.5 µM"
Cc1nccc2[nH]c3ccccc3c12 [Compound 1],9.7,0.58,16.7,–,–,–
"c1ccc2c(c1)[nH]c1cccnc12 [δ-Carboline, reference compound]",> 100,> 100,–,lower than those of β-carboline and γ-carboline,–,–
Cc1cc2[nH]c3ccccc3c2cn1 [Compound 3],70,2.2,31.8,–,–,–
Cc1ccc2c(c1)c1cnccc1n2C [Compound 15],–,0.35,22.0,–,7.7,–
Cc1cccc2c1c1cnccc1n2C [Compound 16],–,0.29,22.1,–,6.4,–
Cc1cncc2c3ccccc3n(C)c12 [Compound 12],–,0.043,223.2,strongest activity and high selectivity,9.6,–
Cc1cccc2c3cnccc3n(C)c12 [Compound 13],–,0.3,36.7,–,11,–
"c1ccc2c(c1)[nH]c1ccccc12 [Carbazole, reference compound]",–,–,–,–,–,"CC50 [1, 5]: > 100 µM; EC50 ([2]; MDBK): > 100 µM"
Cc1cccc2[nH]c3ccncc3c12 [Compound 9],16,1.2,13.3,–,–,–
Cc1cccc2c1[nH]c1ccncc12 [Compound 6],24,1.7,14.1,–,–,–
Cc1nccc2c1c1ccccc1n2C [Compound 10],–,0.2,26.0,–,5.2,–
Cc1cc2c(cn1)c1ccccc1n2C [Compound 11],–,0.062,338.7,activity equivalent to that of compound 12 and the highest selectivity,21,–
Cc1ccc2[nH]c3ccncc3c2c1 [Compound 8],12,3,4,–,–,–
c1ccc2c(c1)[nH]c1ccncc12 [γ-Carboline],–,2.1,19.5,selective anti-BVDV effects,41,–
Cc1cncc2c1[nH]c1ccccc12 [Compound 4],21,0.55,38.2,–,–,–
Cc1ccc2c(c1)[nH]c1ccncc12 [Compound 7],24,1.1,21.8,–,–,–
Interferon-α,–,–,–,–,–,"EC50 (50% effective concentration, 50% inhibition of viral replication) ([2]; interferon-α, BVDV-infected MDBK cells, MOI 0.01, 3 days, LDH readout): 5.5* IU/well"
Cc1ccc2c3cnccc3n(C)c2c1 [Compound 14],–,0.3,133.3,–,40,–
"c1ccc2c(c1)[nH]c1ncccc12 [α-Carboline, reference compound]",> 100,91,>1.1,lower than those of β-carboline and γ-carboline,–,–
"NC(=O)c1ncn([C@@H]2O[C@H](CO)[C@@H](O)[C@H]2O)n1 [Ribavirin, 1-β-D-ribofuranousyl-1,2,4-triazole-3-carboxamide, reference compound]",–,3.9,–,selective anti-BVDV effects,15.1,–
